Like-named read-outs stand apart in the source and are kept apart here.
How the values were obtained:
P. falciparum K1 = assay: In vitro inhibition of P. falciparum K1 (SYBR Green I-based fluorescence assay); assay type: cell-based; settings: Plasmodium falciparum; multidrug-resistant strain K1; 72 h incubation; average ± SD, three independent experiments; read-out: IC50 P. falciparum K1
Protocol: (§1) The cultures were maintained in an incubator under specific conditions: 37 °C under 5% CO2 and 5% O2.
(§2) The D-sorbitol method (CAS: 50-70-4, Wako, Osaka, Japan) was employed to synchronize parasites, resulting in the attainment of ≥90% ring-stage parasites. These synchronized parasites were then utilized for the experiments within a 2-h window. The assay was performed as follows. First, 50 μL of synchronized parasites with 0.5% parasitemia and 2% hematocrit were added to individual wells of a 96-well plate. Then, 50 μL of the test compounds was introduced to each well. […] Wells containing only test compounds and erythrocytes were included for background correction. […] After the designated incubation time, 100 μL of lysis buffer containing 0.02% (v/v) SYBR Green I was added to each well, the contents of the well were mixed by pipetting, and the plate was incubated in the dark at room temperature for 2 h. […] This assay was repeated four times at each concentration, and the resulting inhibitory values represent the average from three independent trials.
(§3) The IC50 or CC50 values were determined from three independent experiments by plotting the logarithmic concentration of the compound against the percent parasite inhibition or cell growth inhibition, respectively. Nonlinear regression analysis was conducted using GraphPad Prism 10 (GraphPad Software, Inc., La Jolla, CA, USA). Comparisons between groups were evaluated using either one-way or two-way ANOVA followed by Tukey's or Fisher's multiple comparisons tests. […] The meaning of each symbol is specified in the corresponding figure legend alongside the name of the employed test.

[1] = In vitro toxicity to human cells (cell viability assay); assay type: cell-based; settings: human foreskin fibroblasts (HFFs), average ± SD, three independent experiments
Protocol: HFF cells are selected for cytotoxicity testing in this study, providing a physiologically relevant model for the evaluation of drug interactions with human cells. […] This designation makes them a suitable model for the investigation of cellular processes and their sensitivity to toxic substances, which is crucial for the early identification of potential adverse effects of drugs during the development process.
The IC50 or CC50 values were determined from three independent experiments by plotting the logarithmic concentration of the compound against the percent parasite inhibition or cell growth inhibition, respectively. Nonlinear regression analysis was conducted using GraphPad Prism 10 (GraphPad Software, Inc., La Jolla, CA, USA). Comparisons between groups were evaluated using either one-way or two-way ANOVA followed by Tukey's or Fisher's multiple comparisons tests. A p-value of <0.05 was considered to indicate statistical significance and is denoted by an asterisk or a symbol. The meaning of each symbol is specified in the corresponding figure legend alongside the name of the employed test.

P. falciparum 3D7 = assay: In vitro inhibition of P. falciparum 3D7 (SYBR Green I-based fluorescence assay); assay type: cell-based, Plasmodium falciparum; design: logIC50: unit not given here; settings: for IC50: Plasmodium falciparum; for logIC50: base-10 log-transformed IC50 against P. falciparum 3D7
Protocol: as §1, §2, §3

[2] = Table S2, P. falciparum 3D7, value used for SAR analysis, read-out: IC50
[3] = chloroquine-sensitive strain 3D7, 72 h incubation, average ± SD, three independent experiments, read-out: IC50 P. falciparum 3D7
[4] = 3D7, Table S1, average of three independent experiments, read-out: IC50 Mean against P. falciparum 3D7

| SMILES | IC50 (P. falciparum K1) [µM] | CC50 [1] [µM] | IC50 (P. falciparum 3D7; [2]) [µM] | IC50 (P. falciparum 3D7; [3]) [µM] | logIC50 (P. falciparum 3D7; Table S2) | IC50 (P. falciparum 3D7; [4]) [µM] |
| --- | --- | --- | --- | --- | --- | --- |
| Oc1ccccc1-c1cnc(-c2cccc(O)c2O)o1 [Compound 1, 2-(2′,3′-dihydroxyphenyl)-5-(2″-hydroxyphenyl)oxazole] | 6.17 ± 3.33 | 59.6 ± 4.84 | 11 | 11 ± 2.69 | 1.042 |  |
| COc1ccccc1-c1cnc(-c2cccc(OC)c2OC)o1 [Compound 2] |  |  |  |  | 2.301 | > 200 |
| CC(=O)Oc1ccccc1-c1cnc(-c2cccc(OC(C)=O)c2OC(C)=O)o1 [Compound 3] | 4.7 ± 2.24 | 126 ± 31.6 | 9.22 | 9.22 ± 1.68 | 0.9649 |  |
| Oc1ccc(O)c(-c2ncc(-c3ccccc3O)o2)c1 [Compound 4, 2-(2′,5′-dihydroxyphenyl)-5-(2″-hydroxyphenyl)oxazole] | 3.74 ± 1.47 | 55.4 ± 11.7 | 6.2 | 6.2 ± 4.23 | 0.7924 |  |
| COc1ccc(OC)c(-c2ncc(-c3ccccc3OC)o2)c1 [Compound 5] |  |  |  |  | 2.301 | > 200 |
| CC(=O)Oc1ccc(OC(C)=O)c(-c2ncc(-c3ccccc3OC(C)=O)o2)c1 [Compound 6] |  |  | 13.4 |  | 1.127 | 13.4 |
| Oc1ccc(O)c(-c2cnc(-c3ccccc3)o2)c1 [Compound 7, 2-phenyl-5-(2″,5″-hydroxyphenyl)oxazole] | 1.65 ± 0.72 | 54.1 ± 11 | 3.85 | 3.85 ± 1.87 | 0.5852 |  |
| COc1ccc(OC)c(-c2cnc(-c3ccccc3)o2)c1 [Compound 8] |  |  |  |  | 2.301 | > 200 |
| CC(=O)Oc1ccc(OC(C)=O)c(-c2cnc(-c3ccccc3)o2)c1 [Compound 9] | 1.27 ± 0.51 | 56.7 ± 18.4 | 3.38 | 3.38 ± 1.46 | 0.5284 |  |
| Oc1ccc(O)c(-c2cnc(-c3cc(O)ccc3O)o2)c1 [Compound 10, 2-(2′,5′-dihydroxyphenyl)-5-(2″,5″-dihydroxyphenyl)oxazole] | 4.94 ± 2.15 | 39.5 ± 7.45 | 12.6 | 12.7 ± 7.63 | 1.102 |  |
| COc1ccc(OC)c(-c2cnc(-c3cc(OC)ccc3OC)o2)c1 [Compound 11] |  |  | 15 |  | 1.177 | 15 |
| CC(=O)Oc1ccc(OC(C)=O)c(-c2cnc(-c3cc(OC(C)=O)ccc3OC(C)=O)o2)c1 [Compound 12] | 4.7 ± 1.69 | 67.8 ± 1.39 | 10.2 | 10.2 ± 4.09 | 1.01 |  |
| COc1ccccc1-c1cnc(-c2ccccc2OC)o1 [Compound 13] |  |  |  |  | 2.301 | > 200 |
| COc1cccc(-c2ncc(-c3ccc4ccccc4c3)o2)c1OC [Compound 14] |  |  | 62.4 |  | 1.795 | 62.4 |
| COc1cccc(-c2cnc(-c3cccc(OC)c3OC)o2)c1 [Compound 15] |  |  | 74.8 |  | 1.874 | 74.8 |
| COc1ccc(-c2cnc(-c3cccc(OC)c3OC)o2)cc1 [Compound 16] |  |  |  |  | 1.579 | 37.9 |
| COc1ccc(OC)c(-c2cnc(-c3cccc(OC)c3OC)o2)c1 [Compound 17] |  |  |  |  | 2.301 | > 200 |
| COc1cccc(-c2ncc(-c3ccc(OC)c(OC)c3OC)o2)c1OC [Compound 18] |  |  | 51.1 |  | 1.708 | 51.1 |
| COc1cccc(-c2cnc(-c3cccc(OC)c3)o2)c1 [Compound 19] |  |  |  |  | 1.665 | 46.3 |
| COc1ccc(-c2cnc(-c3ccc(OC)cc3)o2)cc1 [Compound 20] |  |  |  |  | 2.301 | > 200 |
| COc1ccc(-c2ncc(-c3ccccc3OC)o2)c(OC)c1 [Compound 21] |  |  | 19.3 |  | 1.286 | 19.3 |
| COc1ccccc1-c1cnc(-c2c(OC)cccc2OC)o1 [Compound 22] |  |  |  |  | 1.426 | 26.7 |
| COc1cccc(-c2cnc(-c3cccc(OC)c3OC)o2)c1OC [Compound 23] |  |  | 12.7 |  | 1.104 | 12.7 |

| SMILES | IC50 (P. falciparum K1) [µM] | CC50 [1] [µM] | IC50 (P. falciparum 3D7; [2]) [µM] | IC50 (P. falciparum 3D7; [3]) [µM] | logIC50 (P. falciparum 3D7; Table S2) | IC50 (P. falciparum 3D7; [4]) [µM] |
| --- | --- | --- | --- | --- | --- | --- |
| COc1cccc(-c2cnc(-c3ccc(OC)c(OC)c3OC)o2)c1OC [Compound 24] |  |  |  |  | 1.832 | 68 |
| COc1cccc(-c2ncc(-c3ccccc3)o2)c1OC [Compound 25] |  |  |  |  | 1.476 | 29.9 |
| COc1cccc(-c2ncc(-c3ccccc3OC)o2)c1 [Compound 26] |  |  |  |  | 2.301 | > 200 |
| COc1ccc(OC)c(-c2cnc(-c3ccccc3OC)o2)c1 [Compound 27] |  |  |  |  | 2.027 | 106 |
| COc1cccc(-c2ncc(-c3c(OC)cccc3OC)o2)c1OC [Compound 28] |  |  |  |  | 2.096 | 125 |
| COc1ccc(-c2cnc(-c3cccc(OC)c3OC)o2)c(OC)c1 [Compound 29] |  |  | 24.9 |  | 1.397 | 24.9 |
| COc1cccc(-c2ncc(-c3ccccc3C)o2)c1OC [Compound 30] |  |  |  |  | 2.301 | > 200 |
| COCOc1ccccc1-c1cnc(-c2cccc(OC)c2OC)o1 [Compound 33] |  |  | 18.2 |  | 1.26 | 18.2 |
| CCOc1ccccc1-c1cnc(-c2cccc(OC)c2OC)o1 [Compound 34] |  |  |  |  | 2.301 | > 200 |
| CCCOc1ccccc1-c1cnc(-c2cccc(OC)c2OC)o1 [Compound 35] |  |  | 27.7 |  | 1.442 | 27.7 |
| COc1cccc(-c2ncc(-c3ccccc3[N+](=O)[O-])o2)c1OC [Compound 36] |  |  | 39.6 |  | 1.598 | 39.6 |
| COc1cccc(-c2ncc(-c3ccccc3N)o2)c1OC [Compound 37] |  |  |  |  | 1.564 | 36.6 |
| COc1cccc(-c2ncc(-c3ccccc3N(C)C)o2)c1OC [Compound 38] |  |  | 54.2 |  | 1.734 | 54.2 |
| COc1cccc(-c2ncc(-c3ccccc3NC(C)=O)o2)c1OC [Compound 39] |  |  |  |  | 2.301 | > 200 |
| Oc1ccccc1-c1cnc(-c2cccc(O)c2O)s1 [Compound 40] | 1.74 ± 0.89 | 46.3 ± 5.84 | 3.95 | 3.95 ± 1.38 | 0.597 |  |
| COc1ccccc1-c1cnc(-c2cccc(OC)c2OC)s1 [Compound 41] |  |  |  |  | 1.189 | 15.5 |
| Oc1ccccc1-c1nnc(-c2cccc(O)c2O)o1 [Compound 42] | 6.19 ± 2.66 | 52.5 ± 13.2 | 9.53 | 9.53 ± 3.15 | 0.9793 |  |
| COc1ccccc1-c1nnc(-c2cccc(OC)c2OC)o1 [Compound 43] |  |  | 16.9 |  | 1.228 | 16.9 |
| Oc1ccccc1-c1nnc(-c2cccc(O)c2O)s1 [Compound 44] | 3.91 ± 1.45 | 160 ± 62.3 | 6.41 | 6.41 ± 1.16 | 0.8066 |  |
| COc1ccccc1-c1nnc(-c2cccc(OC)c2OC)s1 [Compound 45] |  |  |  |  | 2.301 | > 200 |
| COc1ccccc1-c1coc(-c2cccc(OC)c2OC)n1 [Compound 46] |  |  |  |  | 1.65 | 44.7 |
| Oc1ccccc1-c1coc(-c2cccc(O)c2O)n1 [Compound 47] | 3.13 ± 1.21 | 71 ± 23.1 | 4.63 | 4.63 ± 1.18 | 0.6658 |  |

Source: publication PMC11067372, “Evaluation of the antiplasmodial efficacy of synthetic 2,5-diphenyloxazole analogs of compounds naturally derived from Oxytropis lanata” (International Journal for Parasitology: Drugs and Drug …, 2024)
